Laboratory results: patent US20200361871A1 (Enterprise Therapeutics Ltd., priority 2018, published 2020)
“Also recorded” adds a separate entry of the source.

What was measured:
[1] = Competitive suspension equilibration of all known forms of Compound 36 in surfactant buffers; format: physicochemical; conditions: 20° C.
Method: Equimolar composites of the forms of Compound 36 were stirred in each surfactant buffer configuration as follows.
Equimolar admixtures of each form and the amorphous phase were prepared and suspended in the appropriate surfactant buffer configuration at the dose relevant concentration of 5 mg/ml and stirred at 20° C. for 13 days. Stirring was suspended, the slurries were centrifuged, supernatant decanted and the pellets were dried under reduced pressure and analysed.
All known forms of Compound 36 were combined in approximately equimolar proportions. Each composite was suspended in Tween/Span and Tween 80 buffers (5 mg/ml concentration) in two vessels and stirred at 20° C. […] Therefore, order of succession in formulation vehicles under ambient storage supported Form A as the preferred form.

[2] = Solubility assessment of Compound 36 Form A in solvents at 50° C.; format: physicochemical; set-up: key to Solubility (dissolution in solvent): ✓: material dissolved at 50° C.; x: material did not dissolve; ?: partial dissolution
Method: Compound 36 (Form 1, approximately 30 mg) was weighed into 2 ml glass vials and was treated with aliquots of solvent. The samples were stirred at 50° C., 400 rpm, for approximately 10 minutes between addition of aliquots of solvent. Solvent was added until a clear solution was formed or a maximum of 60 volumes (1.8 ml) of solvent was reached.
Samples that were solutions (or close to dissolution, sample in DCM) were cooled to 5° C. at 0.1° C./min and were stirred overnight. After cooling, the samples that contained solids were filtered using PTFE frits, dried under suction for approximately 30 minutes and were analysed by XRPD.
Samples that were suspensions in 60 volumes of solvent were matured (shaken in cycles of 4 hours at 50° C./4 hours at RT). After 5 days, samples were filtered using PTFE frits, dried under suction for approximately 30 minutes and were analysed by XRPD.

[3] = Storage of forms of Compound 36 at 40° C./75% RH in open vials, XRPD; format: physicochemical; conditions: open vial, 14 days (2 weeks)
Method: Form A was stored at 40° C./75% RH, in an open vial. […] Therefore, Form A is stable to exposure to elevated temperature and humidity for up to 2 weeks and no evidence of a hydrated form was observed.
One sample of each of the new forms (Forms B, C, D, E, E+extra peaks, F, G and H) was analysed by ^1H NMR, TGA, DSC and stored at 40° C./75% RH. Results are summarised in Table E with Form A for comparison.

[4] = biological target: human TMEM16A (TMEM16Aabc variant) (Homo sapiens, UniProt Q5XXA6, DEL476-501, form not given); assay: Automated whole-cell patch clamp (Qpatch) TMEM16A potentiator assay in FRT cells stably expressing human TMEM16A; format: cell-based
Sequence of human TMEM16A (TMEM16Aabc variant) (Q5XXA6 with tags, fused parts or gaps DEL476-501): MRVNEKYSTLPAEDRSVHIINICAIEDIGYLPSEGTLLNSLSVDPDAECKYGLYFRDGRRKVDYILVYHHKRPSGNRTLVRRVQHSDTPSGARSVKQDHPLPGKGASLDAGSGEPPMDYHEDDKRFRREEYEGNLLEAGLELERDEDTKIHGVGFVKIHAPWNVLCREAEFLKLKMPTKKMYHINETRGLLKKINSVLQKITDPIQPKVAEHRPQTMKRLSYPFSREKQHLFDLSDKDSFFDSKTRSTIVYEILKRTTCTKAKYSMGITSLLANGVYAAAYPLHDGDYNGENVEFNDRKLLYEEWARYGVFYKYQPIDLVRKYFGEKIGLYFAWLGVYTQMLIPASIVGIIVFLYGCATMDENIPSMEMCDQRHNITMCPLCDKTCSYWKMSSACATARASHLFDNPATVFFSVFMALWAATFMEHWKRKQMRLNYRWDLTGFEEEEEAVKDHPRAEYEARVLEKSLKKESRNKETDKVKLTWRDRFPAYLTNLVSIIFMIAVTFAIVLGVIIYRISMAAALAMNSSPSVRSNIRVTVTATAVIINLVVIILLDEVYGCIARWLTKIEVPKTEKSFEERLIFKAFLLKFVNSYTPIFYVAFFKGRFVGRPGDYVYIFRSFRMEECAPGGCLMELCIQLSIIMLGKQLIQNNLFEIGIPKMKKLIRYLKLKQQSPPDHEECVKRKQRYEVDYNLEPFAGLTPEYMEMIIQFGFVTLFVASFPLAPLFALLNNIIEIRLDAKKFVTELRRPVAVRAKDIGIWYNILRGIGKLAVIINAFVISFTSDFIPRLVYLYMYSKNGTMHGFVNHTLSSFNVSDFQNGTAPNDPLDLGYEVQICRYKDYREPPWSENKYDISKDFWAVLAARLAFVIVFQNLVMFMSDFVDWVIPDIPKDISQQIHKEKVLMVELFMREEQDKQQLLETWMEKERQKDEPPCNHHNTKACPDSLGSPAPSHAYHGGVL
In short: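 Potentiation was read as the rise in peak +70 mV current over baseline (%), from cumulative 5-min additions of compound. Recordings used whole-cell automated patch of FRT cells stably carrying human TMEM16Aabc, with pipette Ca2+ buffered to give ~20% maximal current. EC50 and efficacy came from concentration-response fits.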

[5] = Solubility assessment of Compound 36 Form A in solvents at 50° C.; format: physicochemical; conditions: acetone and ethanol

C#CC(C)(C)NC(=O)c1cc(NC(=O)Cc2cc(Cl)ccc2O)ccn1 [Compound 36 Form A, 4-[[2-(5-Chloro-2-hydroxy-phenyl)acetyl]amino]-N-(1,1-dimethylprop-2-ynyl)pyridine-2-carboxamide]
Form produced by competitive suspension equilibration (thermodynamic stability) ([1]; TWEEN 80 (0.5 mg/ml) or TWEEN 20 (0.5 mg/ml)/SPAN 20 (0.05 mg/ml), 7 to 10 days): most thermodynamically stable form
Solubility (dissolution in solvent) ([2]; 2-Propanol, 5 vol, 50° C.): x
Solubility (dissolution in solvent) ([2]; 2-Propanol, 10 vol, 50° C.): x
Solubility (dissolution in solvent) ([2]; 2-Propanol, 30 vol, 50° C.): ✓
Solubility (dissolution in solvent) ([2]; 5% aqueous ACN, 5 vol, 50° C.): x
Solubility (dissolution in solvent) ([2]; 5% aqueous ACN, 20 vol, 50° C.): ✓
Solubility (dissolution in solvent) ([2]; 20% aqueous ACN, 5 vol, 50° C.): x
Solubility (dissolution in solvent) ([2]; 20% aqueous ACN, 10 vol, 50° C.): ✓
Solubility (dissolution in solvent) ([2]; Acetone, 5 vol, 50° C.): ✓
Solubility (dissolution in solvent) ([2]; Acetone, 10 vol, 50° C.): ✓
Solubility (dissolution in solvent) ([2]; Acetonitrile, 5 vol, 50° C.): x
Solubility (dissolution in solvent) ([2]; Acetonitrile, 10 vol, 50° C.): x
Solubility (dissolution in solvent) ([2]; Acetonitrile, 30 vol, 50° C.): ✓
Solubility (dissolution in solvent) ([2]; Dichloromethane, 5 vol, 50° C.): x
Solubility (dissolution in solvent) ([2]; Dichloromethane, 10 vol, 50° C.): x
Solubility (dissolution in solvent) ([2]; Dichloromethane, 20 vol, 50° C.): x
Solubility (dissolution in solvent) ([2]; Dichloromethane, 30 vol, 50° C.): x
Solubility (dissolution in solvent) ([2]; Ethanol, 5 vol, 50° C.): x
Solubility (dissolution in solvent) ([2]; Ethanol, 10 vol, 50° C.): ✓
Solubility (dissolution in solvent) ([2]; Ethyl Acetate, 5 vol, 50° C.): x
Solubility (dissolution in solvent) ([2]; Ethyl Acetate, 10 vol, 50° C.): x
Solubility (dissolution in solvent) ([2]; Ethyl Acetate, 20 vol, 50° C.): ✓
Solubility (dissolution in solvent) ([2]; Tetrahydrofuran, 5 vol, 50° C.): x
Solubility (dissolution in solvent) ([2]; Tetrahydrofuran, 10 vol, 50° C.): x
Solubility (dissolution in solvent) ([2]; Tetrahydrofuran, 20 vol, 50° C.): ✓
Solubility (dissolution in solvent) ([2]; Water, 5 vol, 50° C.): x
Solubility (dissolution in solvent) ([2]; Water, 10 vol, 50° C.): x
Solubility (dissolution in solvent) ([2]; Water, 20 vol, 50° C.): x
Solubility (dissolution in solvent) ([2]; Water, 30 vol, 50° C.): x
Solubility (dissolution in solvent) ([2]; Water, 40 vol, 50° C.): x
Solubility (dissolution in solvent) ([2]; Water, 50 vol, 50° C.): x
Solubility (dissolution in solvent) ([2]; Water, 60 vol, 50° C.): x
Solubility (dissolution in solvent) ([2]; n-Heptane, 5 vol, 50° C.): x
Solubility (dissolution in solvent) ([2]; n-Heptane, 10 vol, 50° C.): x
Solubility (dissolution in solvent) ([2]; n-Heptane, 20 vol, 50° C.): x
Solubility (dissolution in solvent) ([2]; n-Heptane, 30 vol, 50° C.): x
Solubility (dissolution in solvent) ([2]; n-Heptane, 40 vol, 50° C.): x
Solubility (dissolution in solvent) ([2]; n-Heptane, 50 vol, 50° C.): x
Solubility (dissolution in solvent) ([2]; n-Heptane, 60 vol, 50° C.): x
Solubility (dissolution in solvent) ([2]; tert-Butylmethyl Ether, 5 vol, 50° C.): x
Solubility (dissolution in solvent) ([2]; tert-Butylmethyl Ether, 10 vol, 50° C.): x
Solubility (dissolution in solvent) ([2]; tert-Butylmethyl Ether, 20 vol, 50° C.): x
Solubility (dissolution in solvent) ([2]; tert-Butylmethyl Ether, 30 vol, 50° C.): x
Solubility (dissolution in solvent) ([2]; tert-Butylmethyl Ether, 40 vol, 50° C.): x
Solubility (dissolution in solvent) ([2]; tert-Butylmethyl Ether, 50 vol, 50° C.): x
Solubility (dissolution in solvent) ([2]; tert-Butylmethyl Ether, 60 vol, 50° C.): x
Storage at 40° C./75% RH (change of form by XRPD) [3]: no change in form was detected; also recorded: No change (14 days)

C#CC(C)(C)NC(=O)c1cc(NC(=O)Cc2cc(Cl)ccc2O)ccn1 [Example 36, 4-[[2-(5-Chloro-2-hydroxy-phenyl)acetyl]amino]-N-(1,1-dimethylprop-2-ynyl)pyridine-2-carboxamide]
% Potentiation @ 3.33 μM Avg ([4]; 3.33 μM solution of test compound, percentage increase of baseline TMEM16A current): 199%
EC50 ([4]; calculated EC50, Qpatch TMEM16A current at +70 mV): 20 nM
Form produced by competitive suspension equilibration (XRPD) ([1]; Tween/Span and Tween 80 buffers, 5 mg/ml, 13 days): consistent with Form A
Solubility (relative, in words) [5]: most soluble
Solubility (in words) ([2]; acetonitrile/water mixtures): freely soluble
Solubility (dissolution in anti-solvents) ([2]; n-heptane, water and TBME, up to 60 volumes, 50° C.): no observable dissolution
